From patent US6562316B1, “Drug delivery system with two-step targeting” (priority 1997, dated 2003)

Settings: PEG-stabilized DSPC/Chol/PEG(2000)-DSPE liposome formulation (40 mg/ml total lipid, 12 mg/ml WSA1); buffer and serum; 48h incubation at 37° C.
Description: The liposomes are loaded by use of citric acid pH-gradient. Liposomes are prepared in 500 mM citrate buffer with pH 4.0 The external medium is titrated to pH 7.7 with sodium carbonate. WSA is thereafter added and allowed to load for 20 minutes at 60° C. The final formulation contains 40 mg/ml of total lipid and 12 mg/ml of WSA1 which corresponds to about 1×10^5 WSA, or 1×10^6 10 B, per liposome.

## 1,8-diamino-4-N-3- [12-(N-9-acridinyl-3-aminopropyl)-p-carborane-1-yl] propyl-4-azooctane hydrogen chloride [WSA1]
  encapsulated WSA 1 released: less than 15%
